The subject of data set [1] is caudal vein endothelial cells. Briefly: Caudal vein endothelial cell migration, time-lapse confocal imaging. It is filed as in vivo, zebrafish. Particulars: 10 μM aplexone. How it is done:
A-B, Representative images of the caudal vein of control (A) and 10 μM aplexone-treated embryos (B) at 30 hpf. Images were overlaid with the endothelial cell migration path inferred from time-lapse confocal movies taken from 25 hpf to 30 hpf. The migration of caudal vein endothelial cells was traced using the Manual Tracking feature of ImageJ and the positions of ISV sprouting points were used as references to adjust for the growth of embryos. C, The distance of endothelial cell migration in caudal vein of control and aplexone-treated Tg(kdrl:GFP) embryos. Asterisk indicates p<0.05. (D) The window of application of aplexone. Grey bars represent the developmental stages during which Tg(kdrl:GFP) embryos were exposed to 10 μM aplexone and the caudal vein phenotype was analyzed at 48 hpf. […] A “−” indicates the formation of normal caudal vein plexus.
Images of GFP expression in Tg(kdrl:GFP) embryos were acquired using a Zeiss SV-11 epifluorescence microscope. Confocal images were acquired using a Carl Zeiss Laser Scanning Systems LSM510 equipped with 20× air, 20× water or 40× water immersion objectives. For single time point confocal images, embryos were anesthetized with 0.01% tricaine and embedded in 1% agarose. […] The images obtained were analyzed using the Zeiss LSM Image Brower version 4 and Image J. […]

The next data set has as its system zebrafish embryos. Nature of the data set: Overall phenotype of treated zebrafish embryos (body shape, circulation). It counts as in vivo. How it is done:
A,B,C, Overall phenotype of control and aplexone-treated embryos at 30 hpf. A′,B′,C′, Vasculature in trunk. […] D-E, Germ cells in control and aplexone treated embryos at 24 hpf were detected by in situ hybridization using the nanos probe. F, The percentage of embryos with ectopic primordial germ cells in control (n=26), 5 μM (n=13), and 10 μM (n=14) aplexone-treated embryos. […] I, The percentage of embryos with cardia bifida in control (n=16) and 10 μM-(n=17), 20 μM-(n=17) and 30 μM-(n=18) aplexone-treated embryos.
(§1) Aplexone treatment described in this study was carried out at a concentration of 10 μM starting at 10 hpf unless otherwise specified.

A further data set relates to mCherry-RhoCLVL. Nature of the data set: Localization of chimeric protein mCherry-RhoCLVL (geranylgeranylation). It is filed as in vivo, zebrafish. The note with it: 10 μM aplexone, 80% epiboly. How it is done:
mCherry-RhoCLVL was generated by PCR amplification of mCherry from pmCherry-N3 (a generous gift from S. Walsh) using primers containing sequences coding for the C-terminal 20 amino acid residues of human RhoA. mCherry-RasCVLS was amplified from pME-mCherryCAAX (a generous gift from C.-B. Chien). The PCR products were sub-cloned into pcGlobin2 (Ro et al., 2004) and mRNA was synthesized using the mMESSAGE mMACHINE kit (Ambion). Zebrafish embryos were injected with 250 pg of mCherry-RhoCLVL and mCherry-RasCVLS mRNA at 1-cell stage, and raised with or without the presence of 10 μM aplexone at 25° C. and fixed at 80% epiboly. Cellular localizations of the mCherry chimeras were analyzed with confocal microscopy.

Data set [2] concerns Tg(kdrl:GFP) zebrafish embryos. Nature of the data set: Caudal vein plexus (CVP) formation / venous angiogenesis in Tg(kdrl:GFP) zebrafish embryos. It counts as in vivo.
Excerpt: (§2) Images of GFP expression in Tg(kdrl:GFP) embryos were acquired using a Zeiss SV-11 epifluorescence microscope. Confocal images were acquired using a Carl Zeiss Laser Scanning Systems LSM510 equipped with 20× air, 20× water or 40× water immersion objectives. For single time point confocal images, embryos were anesthetized with 0.01% tricaine and embedded in 1% agarose. When capturing time-lapse confocal movies, embryos were mounted in 3.5% methylcellulose (Sigma-Aldrich) and imaged for 5 hrs on a heated stage at 28.5° C. The images obtained were analyzed using the Zeiss LSM Image Brower version 4 and Image J.
A synthetic chemical library containing 168 compounds (Castellano et al., 2007) and 300 chemicals from Biomol International LP, consisting of 72 ion channel inhibitors (Cat No. 2805), 84 kinase/phosphatase inhibitors (Cat No. 2831), 84 orphan ligands (Cat No. 2825), and 60 endocannabinoids (Cat No. 2801) were screened. The synthetic small molecules were prepared through nucleophilic phosphine catalysis of allenoates (Zhu et al., 2003). Four Tg(kdrl:GFP) embryos were placed into each well of 96-well plates containing a 10 μM solution of each chemical compound dissolved in embryo buffer with 0.1% DMSO. The embryos were raised at 28.5° C. and examined for defects in blood vessel development at 1 and 2 days after treatment. Standard parameters such as numbers of somites and head to body angle were used to determine the stages of zebrafish embryos (Kimmel et al., 1995).
as §1
8 ng tnnt2 MO (Gene Tools) (Sehnert et al., 2002), 3 nl of 4 mM GGTI-2133 (Calbiochem), 3 nl of 5 mM L744,832 (Calbiochem) and 1 nl of 2M mevalonate (Sigma-Aldrich) were injected into 1-2 cell stage embryos.
The library of 168 compounds^24 prepared through the nucleophilic phosphine catalysis of allenes were screened using Tg(kdrl:GFP) zebrafish. Four embryos were placed in each well of 96-well plates containing a 10 uM solution of each chemical compound dissolved in embryo buffer with 0.1% DMSO. The embryos were raised at 28.5° C. and defects in blood vessel development were examined at 1 and 2 days after fertilization.

The test system of data set [3] is Tg(kdrl:GFP) zebrafish embryos. Nature of the data set: Primary ISV formation (arterial-derived angiogenesis) in zebrafish embryos. It counts as in vivo.
Excerpt: as §2
A synthetic chemical library containing 168 compounds (Castellano et al., 2007) and 300 chemicals from Biomol International LP, consisting of 72 ion channel inhibitors (Cat No. 2805), 84 kinase/phosphatase inhibitors (Cat No. 2831), 84 orphan ligands (Cat No. 2825), and 60 endocannabinoids (Cat No. 2801) were screened. […]
To understand whether angiogenesis from arterial and venous ECs are under different genetic controls we screened a collection of small molecules for compounds that preferentially suppress angiogenesis from exclusively one cell type. In this screen, we used the primary ISV sprouts as the readout for arterial-derived angiogenesis, and the CVP and secondary ISV sprouts as indicators of venous-derived angiogenesis. […]

Another data set concerns HUVECs. Briefly: Wound healing assay, HUVECs. It counts as cell-based, human. How it is done:
HUVECs and HUAECs were purchased from VEC Technologies. Cells were cultured on 0.1% Gelatin-coated dishes in Medium 199 (Mediatech), supplemented with 15% Fetal Bovine Serum (ATCC), 48 μg/mL Endothelial Cell Growth Supplement (BD Biosciences), 64 μg/mL Heparin Sulfate (Sigma-Aldrich), 0.9 mM Sodium Pyruvate (Mediatech), 100 IU/ml Penicillin (Mediatech), and 100 μg/ml Streptomycin (Mediatech).
For the wound healing assay, cells were cultured in 24-well plates to confluence before being subjected to a 2-hour pre-treatment with either DMSO, aplexone, Rockout (Calbiochem) or NSC 23766 (TOCRIS Bioscience). After the pre-treatment, the monolayer of endothelial cells was scratched and the closure of the wound was measured after 8 hr. The images of wounds were taken at 0 and 8 hr after scratching and the area of the wound was measured using Image J. The migration distance (the width of the wound) was calculated by dividing the area by the length of the wound. Cells below passage seven were used in this study.

“Also recorded” adds a separate entry of the source.

For the molecule `CC(=O)C1=CCC(c2ccccc2)N(S(=O)(=O)c2ccc(C)cc2)C1` (stereo not shown) [aplexone], the “maturation of caudal vein EC filopodia into angiogenic sprouts” value in data set [1] is reported as “never matured into angiogenic sprouts”. Moreover, the “average EC migration distance during CVP formation” value in data set [1] (between 25 hpf and 30 hpf) is 35 μm. The body shape entry in the data set with zebrafish embryos (10 μM aplexone) was “relatively normal body shape”. Besides, the embryo length result with zebrafish embryos (30 μM aplexone) is “shorter than control embryos”. The blood circulation entry with zebrafish embryos (aplexone-treated embryos) is listed as “lack blood circulation”. The “subcellular localization of mCherry-rhoCAAX (CLVL) chimeric protein” value in the data set with mCherry-RhoCLVL is “no longer localized predominantly to the membrane; also recorded: mis-localized to the nucleus and cytoplasm”. In addition, in data set [2] (2 μM single agent), the “CVP formation at suboptimal level” value is listed as “normal CVP”. In data set [2] (10 μM aplexone from 10 hpf), the “formation of the CVP” value is reported as “severely defective”. Besides, the “secondary ISVs (venous-derived sprouts)” value in data set [2] (10 μM from 10 hpf, 2-day-old embryos) was “absent”. In addition, the “development of primary ISVs” value was “indistinguishable; also recorded: does not affect the development of primary ISVs” in data set [3] (10 μM aplexone); “shorter and never reach the dorsal side of the somites; also recorded: inhibits the growth of primary ISVs” in data set [3] (30 μM aplexone). The “migration of HUVECs” value in the data set with HUVECs (5 μM aplexone) is listed as “sufficient to impede the migration of HUVECs”; in the data set with HUVECs (various aplexone concentrations, 8 hr after wound), “inhibited”.

For the origin of these results see patent US9084782B2, “Chemical inhibitors of cholesterol biosynthesis and venous angiogenesis” (The Regents of the University of California, priority 2011, dated 2015).
